This data set has as its target T1, GAL4 DBD-CfEcR(DEF)/VP16AD-MmRXRE (Choristoneura fumiferana, UniProt O77240).
T1 sequence (O77240 1-513): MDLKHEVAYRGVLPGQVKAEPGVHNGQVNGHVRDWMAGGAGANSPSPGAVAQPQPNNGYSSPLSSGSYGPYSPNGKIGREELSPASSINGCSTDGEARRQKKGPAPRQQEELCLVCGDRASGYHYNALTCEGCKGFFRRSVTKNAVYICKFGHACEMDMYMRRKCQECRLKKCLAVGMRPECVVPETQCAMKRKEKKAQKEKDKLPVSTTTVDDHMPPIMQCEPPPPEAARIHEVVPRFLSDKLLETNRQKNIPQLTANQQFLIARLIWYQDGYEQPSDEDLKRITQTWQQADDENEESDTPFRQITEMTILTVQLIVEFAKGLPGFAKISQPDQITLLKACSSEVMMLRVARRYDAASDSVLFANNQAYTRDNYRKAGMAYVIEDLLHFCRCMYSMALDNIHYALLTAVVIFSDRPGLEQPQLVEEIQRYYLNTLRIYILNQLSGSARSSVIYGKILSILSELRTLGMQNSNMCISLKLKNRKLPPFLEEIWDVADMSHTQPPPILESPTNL
Nature of the data set: cell-based. As to conditions: for fold induction at 33 µM: CHO, read-out: Fold Induction Average, 13B3 Assay (33 μM); for 13B3 Rel Max FI: maximum fold induction at any concentration relative to that of GS-E ligand. The gist of the method: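 Stable CHO clone 13B3 expressing GAL4 DBD-CfEcR(DEF) and VP16AD-mouse RXR(DE) with GAL4 RE-luciferase reporter. Ligands tested at 8 concentrations, 33–0.01 μM; luciferase read 48 h after treatment. Fold induction versus DMSO; BC50 from three-parameter logistic fit.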

The text below walks through data of patent US8129355B2, “Ketone ligands for modulating the expression of exogenous genes via an ecdysone receptor complex” (priority 2002, dated 2012).

Structures are written as SMILES. Where two headings read alike, the source gives them in different places.

The EC50 is the concentration giving half of the maximal effect. `COc1cccc(C(=O)NC(C)(C(=O)c2cccc(C)c2)C(C)C)c1C` (centres unmarked) [Example 31]: the EC50 was over 33 µM, the fold induction at 33 µM worked out at 1000 and the “13B3 Rel Max FI” value is listed as 0.08.

Consider `COc1cccc(C(=O)C(C)(NC(=O)c2cccc(OC)c2C)C(C)C)c1` (centres unmarked) [Example 32], for which the EC50 is over 33 µM, the fold induction at 33 µM was found to be 96 and the “13B3 Rel Max FI” value came out at 0.00.

As for `COc1cccc(C(=O)NC(C)(C(=O)c2ccc(C)cc2)C(C)C)c1C` (centres unmarked) [Example 33], the EC50 is over 33 µM, the fold induction at 33 µM is 78 and the “13B3 Rel Max FI” value worked out at 0.00.

With `COc1cccc(C(=O)NC(C)(C(=O)c2ccccc2)C(C)C)c1C` (centres unmarked) [Example 34], the EC50 is over 33 µM, the fold induction at 33 µM is 6 and the “13B3 Rel Max FI” value was 0.00.

As for `CCC(CC)(NC(=O)c1cccc(OC)c1C)C(=O)c1ccccc1OC` [Example 37], the EC50 was over 33 µM, the fold induction at 33 µM was determined as 885 and the “13B3 Rel Max FI” value is 0.08.

Consider `CCC(CC)(NC(=O)c1cccc(OC)c1C)C(=O)c1ccc(F)cc1` [Example 38], for which the EC50 was over 33 µM, the fold induction at 33 µM was found to be 18 and the “13B3 Rel Max FI” value was 0.00.

For `COc1ccccc1C(=O)C1(NC(=O)c2cccc(OC)c2C)CCCC1` [Example 40], the EC50 is about 15 µM, the fold induction at 33 µM stood at 2170 and the “13B3 Rel Max FI” value came to 0.58.

As for `COc1cccc(C(=O)NC2(C(=O)c3ccc(F)cc3)CCCC2)c1C` [Example 42], the EC50 is over 33 µM, the fold induction at 33 µM amounted to 4 and the “13B3 Rel Max FI” value came out at 0.00.

As for `COc1cccc(C(=O)NC2(C(=O)c3ccccc3C)CCCCC2)c1C` [Example 44], the EC50 was over 33 µM, the fold induction at 33 µM is 36 and the “13B3 Rel Max FI” value stood at 0.00.

As to `COc1ccccc1C(=O)C1(NC(=O)c2cccc(OC)c2C)CCCCC1` [Example 45], a half-maximal effect (EC50) was put at 1.35 µM, the fold induction at 33 µM was 92900 and the “13B3 Rel Max FI” value amounted to 0.67.

Consider `COc1ccc(C(=O)C2(NC(=O)c3cccc(OC)c3C)CCCCC2)cc1` [Example 46], for which the EC50 is over 33 µM, the fold induction at 33 µM turned out to be 102 and the “13B3 Rel Max FI” value is listed as 0.00.

`CCC(CC)(NC(=O)c1cccc(OC)c1C)C(=O)c1cccc(C)c1` [Example 48]: the EC50 is at least 33 µM, the fold induction at 33 µM amounted to 12 and the “13B3 Rel Max FI” value was 0.00.

Consider `CCC(CC)(NC(=O)c1cccc(OC)c1C)C(=O)c1cccc(OC)c1` [Example 49], for which the EC50 was over 33 µM and the “13B3 Rel Max FI” value came out at 0.00.

For `CCC(CC)(NC(=O)c1cccc(OC)c1C)C(=O)c1ccc(F)c(C)c1` [Example 50], the EC50 is over 33 µM, the fold induction at 33 µM was determined as 1 and the “13B3 Rel Max FI” value was found to be 0.00.

`CCC(CC)(NC(=O)c1cccc(OC)c1C)C(=O)c1cc(C)cc(C)c1` [Example 51]: the EC50 was about 15 µM, the fold induction at 33 µM turned out to be 1380 and the “13B3 Rel Max FI” value turned out to be 0.64.

In the case of `COc1cccc(C(=O)NC(C)(CC(C)C)C(=O)c2cccc(C)c2)c1C` (centres unmarked) [Example 52], the EC50 was over 33 µM, the fold induction at 33 µM worked out at 114 and the “13B3 Rel Max FI” value is reported as 0.00.

Turning to `COc1cccc(C(=O)C(C)(CC(C)C)NC(=O)c2cccc(OC)c2C)c1` (centres unmarked) [Example 53], the EC50 is over 33 µM and the “13B3 Rel Max FI” value amounted to 0.00.

Consider `COc1cccc(C(=O)NC(C)(CC(C)C)C(=O)c2cc(C)cc(C)c2)c1C` (centres unmarked) [Example 55], for which the EC50 came to 3.42 µM, the fold induction at 33 µM came out at 24700 and the “13B3 Rel Max FI” value is recorded as 0.21.

For `COc1cccc(C(=O)NC2(C(=O)c3ccc(F)cc3)CCCCC2)c1C` [Example 60], the EC50 was over 33 µM, the fold induction at 33 µM came out at 578 and the “13B3 Rel Max FI” value came out at 0.01.

As for `COc1cccc(C(=O)NC2(C(=O)c3cc(C)cc(C)c3)CCS(=O)(=O)CC2)c1C` [Example 62], the EC50 is over 33 µM, the fold induction at 33 µM amounted to 3 and the “13B3 Rel Max FI” value stood at 0.00.

Consider `COc1cccc(C(=O)NC(C)(C(=O)c2ccccc2C)C(C)C)c1C` (centres unmarked) [Example 63], for which the EC50 was over 33 µM, the fold induction at 33 µM amounted to 14 and the “13B3 Rel Max FI” value is on record as 0.03.

As to `COc1ccc(C(=O)C2(NC(=O)c3cccc(OC)c3C)CCCCC2)c(OC)n1` [Example 64], the midpoint of the response, the EC50, lay at 3.79 µM; the fold induction at 33 µM was 599; the “13B3 Rel Max FI” value is 0.81.

`COc1cc(C(=O)C2(NC(=O)c3cccc(OC)c3C)CCCC2)cc(OC)c1C` [Example 65]: the “13B3 Rel Max FI” value stood at 0.03. Moreover, where the note is “read-out: 13B3 EC50, average, dose response, three-parameter logistic model”, the EC50 is about 20 µM. For the same molecule, the “Fold Induction Average, 13B3 Assay (33 μM)” value (single dose 33 μM, RLU ligand treated / RLU DMSO treated cells) amounted to 19.

On to `COc1cc(C(=O)C2(NC(=O)c3cccc(OC)c3C)CCCCC2)cc(OC)c1C` [Example 66], for which the response was half-maximal at 23.8 µM (EC50), the fold induction at 33 µM was 357 and the “13B3 Rel Max FI” value is reported as 0.50.

Consider `COc1cccc(C(=O)NC2(C(=O)c3cc(F)c(F)c(OC)c3)CCCC2)c1C` [Example 67], for which it took 17.6 µM to reach a half-maximal effect (EC50), the fold induction at 33 µM was 555 and the “13B3 Rel Max FI” value came out at 0.50.

As for `COc1cccc(C(=O)NC2(C(=O)c3cc(F)c(F)c(OC)c3)CCCCC2)c1C` [Example 68], the EC50 was 8.79 µM, the fold induction at 33 µM came out at 819 and the “13B3 Rel Max FI” value came to 1.00.

Consider `COc1cccc(C(=O)NC2(C(=O)c3ccccc3)CCCCC2)c1C` [Example 69], for which the EC50 stood at 19.4 µM, the fold induction at 33 µM amounted to 164 and the “13B3 Rel Max FI” value is listed as 0.19.

Take `COc1cccc(C(=O)C(C)(C)NC(=O)c2ccccc2OC)c1` [Example 117]: the “Fold Induction Average, 13B3 Assay (33 μM)” value turned out to be 12.

As for `CCCCC(=O)C1(NC(=O)c2cccc(OC)c2C)CCCCC1` [Example 120], it took 14.9 µM to reach a half-maximal effect (EC50), the fold induction at 33 µM turned out to be 367 and the “13B3 Rel Max FI” value turned out to be 0.27.
